Converted amounts (≈) assume the structure as drawn.
What was measured:
Format in all cases: functional
Staphylococcus aureus [1] = experiment: Antibacterial activity against Vancomycin-intermediate Staphylococcus aureus NRS1 assessed as bacterial growth inhibition
Enterococcus faecium = experiment: Antimicrobial activity against Vancomycin-resistant (Van A) Enterococcus faecium ATCC 51559 assessed as reduction in microbial growth
Staphylococcus aureus [2] = experiment: Antimicrobial activity against Vancomycin-resistant Staphylococcus aureus incubated for 20 hrs by broth dilution method
Enterococcus faecalis = experiment: Antimicrobial activity against Vancomycin - resistant Enterococcus faecalis assessed as inhibition of bacterial growth
[3] = Enterococcus faecium, ATCC 51559, read-out: MIC

Compound | MIC (Enterococcus faecium) | MIC (Enterococcus faecium; [3]) | MIC (Enterococcus faecalis) | further results
CN[C@H](CC(C)C)C(=O)N[C@H]1C(=O)N[C@@H](CC(N)=O)C(=O)N[C@H]2C(=O)N[C@H]3C(=O)N[C@H](C(=O)N[C@H](C(=O)O)c4cc(O)cc(O)c4-c4cc3ccc4O)[C@H](O)c3ccc(c(Cl)c3)Oc3cc2cc(c3O[C@@H]2O[C@H](CO)[C@@H](O)[C@H](O)[C@H]2O[C@H]2C[C@](C)(NCc3cccc(OCC/C=C\CCOc4cccc(CN[C@@]5(C)C[C@H](O[C@H]6[C@H](Oc7c8cc9cc7Oc7ccc(cc7Cl)[C@@H](O)[C@@H](NC(=O)[C@@H](CC(C)C)NC)C(=O)N[C@@H](CC(N)=O)C(=O)N[C@H]9C(=O)N[C@H]7C(=O)N[C@H](C(=O)N[C@H](C(=O)O)c9cc(O)cc(O)c9-c9cc7ccc9O)[C@H](O)c7ccc(c(Cl)c7)O8)O[C@H](CO)[C@@H](O)[C@@H]6O)O[C@@H](C)[C@H]5O)c4)c3)[C@H](O)[C@H](C)O2)Oc2ccc(cc2Cl)[C@H]1O | – | – | – | MIC (Staphylococcus aureus [1]): 1 µg/mL (≈ 0.313 µM)
CCCCCCCCCC(=O)OC[C@H]1O[C@@H](Oc2c3cc4cc2Oc2ccc(cc2Cl)[C@@H](O)[C@@H](NC(=O)[C@@H](CC(C)C)NC)C(=O)N[C@@H](CC(N)=O)C(=O)N[C@H]4C(=O)N[C@H]2C(=O)N[C@H](C(=O)N[C@H](C(=O)O)c4ccccc4-c4cccc2c4)[C@H](O)c2ccc(c(Cl)c2)O3)[C@H](O[C@H]2C[C@](C)(N)[C@H](O)[C@H](C)O2)[C@@H](O)[C@@H]1O | 1 µg/mL | – | – | –
CN[C@H](CC(C)C)C(=O)N[C@H]1C(=O)N[C@@H](CC(N)=O)C(=O)N[C@H]2C(=O)N[C@H]3C(=O)N[C@H](C(=O)N[C@H](C(=O)NCCCNCCCCCCCCNCCCNC(=O)[C@H]4NC(=O)[C@H]5NC(=O)[C@H](NC(=O)[C@@H]6NC(=O)[C@H](CC(N)=O)NC(=O)[C@H](NC(=O)[C@@H](CC(C)C)NC)[C@H](O)c7ccc(c(Cl)c7)Oc7cc6cc(c7O[C@@H]6O[C@H](CO)[C@@H](O)[C@H](O)[C@H]6O[C@H]6C[C@](C)(N)[C@H](O)[C@H](C)O6)Oc6ccc(cc6Cl)[C@H]5O)c5ccc(O)c(c5)-c5c(O)cc(O)cc54)c4cc(O)cc(O)c4-c4cc3ccc4O)[C@H](O)c3ccc(c(Cl)c3)Oc3cc2cc(c3O)Oc2ccc(cc2Cl)[C@H]1O | 0.1 µM | 48 µM | – | –
CN[C@H](CC(C)C)C(=O)N[C@H]1C(=O)N[C@@H](CC(N)=O)C(=O)N[C@H]2C(=O)N[C@H]3C(=O)N[C@H](C(=O)N[C@H](C(=O)O)c4cc(OC)cc(OC)c4-c4cc3ccc4OC)[C@H](O)c3ccc(c(Cl)c3)Oc3cc2cc(c3OC)Oc2ccc(cc2Cl)[C@H]1O | 1.6 µg/mL | – | – | –
CCCCCCCCCCCCCC(=O)N[C@@H](CCCCN)C(=O)N[C@@H](CCCCN)C(=O)N[C@@H](CCCCN)C(=O)NC(CCCCNC(=O)[C@H]1NC(=O)[C@H]2NC(=O)[C@H](NC(=O)[C@@H]3NC(=O)[C@H](CC(N)=O)NC(=O)[C@H](NC(=O)[C@@H](CC(C)C)NC)[C@H](O)c4ccc(c(Cl)c4)Oc4cc3cc(c4O[C@@H]3O[C@H](CO)[C@@H](O)[C@H](O)[C@H]3O[C@H]3C[C@](C)(N)[C@H](O)[C@H](C)O3)Oc3ccc(cc3Cl)[C@H]2O)c2ccc(O)c(c2)-c2c(O)cc(O)cc21)C(=O)O (stereo partly specified) | 0.125 µg/mL | – | – | MIC (Staphylococcus aureus [1]): 0.03 µg/mL (≈ 0.0138 µM); MIC (Staphylococcus aureus [2]): 0.05 µg/mL
CC(=O)OCC1=C(C(=O)O)N2C(=O)[C@@H](NC(=O)CCC[C@@H](N)C(=O)O)[C@H]2SC1 [CEPHALOSPORIN C] | – | – | < 0.5 µg/mL | MIC (Staphylococcus aureus [2]): 1 µg/mL
C=C1NC(=O)[C@H]([C@@H](C)CC)NC(=O)[C@@H](NC(=O)/C(=C/C)NC(=O)[C@@H](N)[C@@H](C)CC)CSC[C@@H](C(=O)N[C@H]2C(=O)N3CCC[C@H]3C(=O)NCC(=O)N[C@H](C(=O)N[C@@H](CCCCN)C(=O)NCCCn3cc(CCC(=O)NCCCOCCOCCOCCCNC(=O)[C@H]4NC(=O)[C@H]5NC(=O)[C@H](NC(=O)[C@@H]6NC(=O)[C@H](CC(N)=O)NC(=O)[C@H](NC(=O)[C@@H](CC(C)C)NC)[C@H](O)c7ccc(c(Cl)c7)Oc7cc6cc(c7O[C@@H]6O[C@H](CO)[C@@H](O)[C@H](O)[C@H]6O[C@H]6C[C@](C)(N)[C@H](O)[C@H](C)O6)Oc6ccc(cc6Cl)[C@H]5O)c5ccc(O)c(c5)-c5c(O)cc(O)cc54)nn3)CS[C@@H]2C)NC(=O)[C@H]([C@@H](C)CC)NC1=O | – | – | 2.3 µM | –
CN[C@H](CC(C)C)C(=O)N[C@H]1C(=O)N[C@@H](CC(N)=O)C(=O)N[C@H]2C(=N)N[C@H]3C(=O)N[C@H](C(=O)N[C@H](C(=O)O)c4cc(O)cc(O)c4-c4cc3ccc4O)[C@H](O)c3ccc(c(Cl)c3)Oc3cc2cc(c3O[C@@H]2O[C@H](CO)[C@@H](O)[C@H](O)[C@H]2O[C@H]2C[C@](C)(N)[C@H](O)[C@H](C)O2)Oc2ccc(cc2Cl)[C@H]1O | – | 0.5 µg/mL | 0.5 µg/mL | –
CN[C@H](CC(C)C)C(=O)N[C@H]1C(=O)N[C@@H](CC(N)=O)C(=O)N[C@H]2C(=S)N[C@H]3C(=O)N[C@H](C(=O)N[C@H](C(=O)O)c4cc(O)cc(O)c4-c4cc3ccc4O)[C@H](O)c3ccc(c(Cl)c3)Oc3cc2cc(c3O[C@@H]2O[C@H](CO)[C@@H](O)[C@H](O)[C@H]2O[C@H]2C[C@](C)(NCc3ccc(-c4ccc(Cl)cc4)cc3)[C@H](O)[C@H](C)O2)Oc2ccc(cc2Cl)[C@H]1O | 2 µg/mL | 4 µg/mL | 2 µg/mL | –
CN[C@H](CC(C)C)C(=O)N[C@H]1C(=O)N[C@@H](CC(N)=O)C(=O)N[C@H]2C(=N)N[C@H]3C(=O)N[C@H](C(=O)N[C@H](C(=O)O)c4cc(O)cc(O)c4-c4cc3ccc4O)[C@H](O)c3ccc(c(Cl)c3)Oc3cc2cc(c3O[C@@H]2O[C@H](CO)[C@@H](O)[C@H](O)[C@H]2O[C@H]2C[C@](C)(NCc3ccc(-c4ccc(Cl)cc4)cc3)[C@H](O)[C@H](C)O2)Oc2ccc(cc2Cl)[C@H]1O | 0.06 µg/mL | 0.005 µg/mL | 0.005 µg/mL | –
CN[C@H](CC(C)C)C(=O)N[C@H]1C(=O)N[C@@H](CC(N)=O)C(=O)N[C@H]2C(=O)N[C@H]3C(=O)N[C@H](C(=O)N[C@H](C(=O)NCCCCCCNC(=O)[C@H]4NC(=O)[C@H]5NC(=O)[C@H](NC(=O)[C@@H]6NC(=O)[C@H](CC(N)=O)NC(=O)[C@H](NC(=O)[C@@H](CC(C)C)NC)[C@H](O)c7ccc(c(Cl)c7)Oc7cc6cc(c7O[C@@H]6O[C@H](CO)[C@@H](O)[C@H](O)[C@H]6O[C@H]6C[C@](C)(N)[C@H](O)[C@H](C)O6)Oc6ccc(cc6Cl)[C@H]5O)c5ccc(O)c(c5)-c5c(O)cc(O)cc54)c4cc(O)cc(O)c4-c4cc3ccc4O)[C@H](O)c3ccc(c(Cl)c3)Oc3cc2cc(c3O[C@@H]2O[C@H](CO)[C@@H](O)[C@H](O)[C@H]2O[C@H]2C[C@](C)(N)[C@H](O)[C@H](C)O2)Oc2ccc(cc2Cl)[C@H]1O | – | – | – | MIC (Staphylococcus aureus [2]): 32 µM
CN[C@H]1C(=O)N[C@@H]2Cc3ccc(cc3)Oc3cc4cc(c3O[C@@H]3O[C@H](C(=O)O)[C@@H](O)[C@H](O)[C@H]3NC(=O)CCCCCCCCC(C)C)Oc3ccc(cc3Cl)[C@@H](O)[C@@H]3NC(=O)[C@H](NC(=O)[C@@H]4NC(=O)[C@@H](NC2=O)c2cc(cc(O)c2Cl)Oc2cc1ccc2O)c1ccc(O)c(c1)-c1c(O[C@H]2O[C@H](CO)[C@@H](O)[C@H](O)[C@@H]2O)cc(O)cc1[C@@H](C(=O)NCCCN(C)C)NC3=O [DALBAVANCIN] | 0.1 µg/mL | – | – | –
CN[C@@H](CC(C)C)C(=O)N[C@@H]1C(=O)N[C@H](CC(N)=O)C(=O)N[C@@H]2C(=O)N[C@@H]3C(=O)N[C@@H](C(=O)N[C@@H](C(=O)NCCCSSCCCNC(=O)[C@H]4NC(=O)[C@H]5NC(=O)[C@H](NC(=O)[C@@H]6NC(=O)[C@H](CC(N)=O)NC(=O)[C@H](NC(=O)[C@@H](CC(C)C)NC)[C@H](O)c7ccc(c(Cl)c7)Oc7cc6cc(c7O[C@@H]6O[C@H](CO)[C@@H](O)[C@H](O)[C@H]6O[C@H]6C[C@](C)(N)[C@H](O)[C@H](C)O6)Oc6ccc(cc6Cl)[C@H]5O)c5ccc(O)c(c5)-c5c(O)cc(O)cc54)c4cc(O)cc(O)c4-c4cc3ccc4O)[C@@H](O)c3ccc(c(Cl)c3)Oc3cc2cc(c3O[C@@H]2O[C@H](CO)[C@@H](O)[C@H](O)[C@H]2O[C@H]2C[C@](C)(N)[C@H](O)[C@H](C)O2)Oc2ccc(cc2Cl)[C@@H]1O | – | – | – | MIC (Staphylococcus aureus [2]): 15 µM
CN[C@H](CC(C)C)C(=O)N[C@H]1C(=O)N[C@@H](CC(N)=O)C(=O)N[C@H]2C(=O)N[C@H]3C(=O)N[C@H](C(=O)N[C@H](C(=O)O)c4cc(O)cc(O)c4-c4cc3ccc4O)[C@H](O)c3ccc(c(Cl)c3)Oc3cc2cc(c3O[C@@H]2O[C@H](CO)[C@@H](O)[C@H](O)[C@H]2O[C@H]2C[C@](C)(N)[C@H](O)[C@H](C)O2)Oc2ccc(cc2/C=C/c2ccc(-c3ccccc3)cc2)[C@H]1O | 2 µg/mL | – | – | –
CN[C@H](CC(C)C)C(=O)N[C@H]1C(=O)N[C@@H](CC(N)=O)C(=O)N[C@H]2C(=O)N[C@H]3C(=O)N[C@H](C(=O)N[C@H](C(=O)O)c4ccccc4-c4cccc3c4)[C@H](O)c3ccc(c(Cl)c3)Oc3cc2cc(c3O[C@@H]2O[C@H](CO)[C@@H](O)[C@H](O)[C@H]2O[C@H]2C[C@](C)(NCc3ccc(OCCCN4C(=O)[C@@H]5[C@H](C4=O)[C@@H](C)C[C@H]5/C=C/c4ccccc4)cc3)[C@H](O)[C@H](C)O2)Oc2ccc(cc2Cl)[C@H]1O | 2 µg/mL | 31 µg/mL | – | –
CCCCCCCCCC(=O)O[C@H]1[C@H](O)[C@@H](O[C@H]2C[C@](C)(N)[C@H](O)[C@H](C)O2)[C@H](Oc2c3cc4cc2Oc2ccc(cc2Cl)[C@@H](O)[C@@H](NC(=O)[C@@H](CC(C)C)NC)C(=O)N[C@@H](CC(N)=O)C(=O)N[C@H]4C(=O)N[C@H]2C(=O)N[C@H](C(=O)N[C@H](C(=O)O)c4ccccc4-c4cccc2c4)[C@H](O)c2ccc(c(Cl)c2)O3)O[C@@H]1CO | – | 16 µg/mL | – | –

Reference: ChEMBL document CHEMBL5230081, “Battle against Vancomycin-Resistant Bacteria: Recent Developments in Chemical Strategies” (J Med Chem, 2019)
